Experimental data taken from US6337346B1 (University of North Carolina at Chapel Hill, priority 1998, dated 2002).
≈ marks a conversion by molar mass, not a printed value. Read-outs that look alike come from different tables or passages of the source.

Tests used:
KB = assay: Preliminary cytotoxicity testing of 6 and 16 (Table 1); format: cell-based; conditions: Homo sapiens, Table 1, preliminary testing
HCT-8 = assay: as above; format: cell-based; conditions: Homo sapiens, Table 1, preliminary testing
P-399 = assay: as above; format: cell-based; conditions: Table 1, preliminary testing
L-1210 = assay: as above; format: cell-based; conditions: Mus musculus, L1210, Table 1, preliminary testing
A549 = assay: as above; format: cell-based; conditions: Homo sapiens, Table 1, preliminary testing
CAKI-1 = assay: as above; format: cell-based; conditions: Homo sapiens, Table 1, preliminary testing
MCF-7 = assay: as above; format: cell-based; conditions: Homo sapiens, MCF7, Table 1, preliminary testing
[1] = test system: several leukemia cell lines; assay: Preliminary cytotoxicity testing, summary in words; format: cell-based
LOX IMVI = assay: NCI in vitro disease-oriented tumor cells screen; format: cell-based, human; conditions: Homo sapiens, Melanoma LOX IMVI, average of at least two testings, read-out: Cytotoxicity log GI50 (converted)
Excerpt: (§1) (Activity is defined as log GI50<−4 where GI50 is the molar concentration causing 50% cell growth inhibition).

SK-MEL-5 = assay: NCI in vitro disease-oriented tumor cells screen; format: cell-based, human; conditions: Homo sapiens, Melanoma SK-MEL-5, average of at least two testings, read-out: Cytotoxicity log GI50 (converted)
Excerpt: as §1

NCI-H23 = assay: NCI in vitro disease-oriented tumor cells screen; format: cell-based, human; conditions: Homo sapiens, Non-Small Cell Lung Cancer NCI-H23, average of at least two testings, read-out: Cytotoxicity log GI50 (converted)
Excerpt: as §1

OVCAR-3 = assay: NCI in vitro disease-oriented tumor cells screen; format: cell-based, human; conditions: Homo sapiens, Ovarian Cancer OVCAR-3, average of at least two testings, read-out: Cytotoxicity log GI50 (converted)
Excerpt: as §1

MDA-MB-435 = assay: NCI in vitro disease-oriented tumor cells screen; format: cell-based, human; conditions: Homo sapiens, Breast Cancer MDA-MB-435, average of at least two testings, read-out: Cytotoxicity log GI50 (converted)
Excerpt: as §1

MDA-N = assay: NCI in vitro disease-oriented tumor cells screen; format: cell-based, human; conditions: Homo sapiens, Breast Cancer MDA-N, average of at least two testings, read-out: Cytotoxicity log GI50 (converted)
Excerpt: as §1

CCRF-CEM = assay: NCI in vitro human tumor cell line assay; format: cell-based; conditions: Leukemia CCRF-CEM, Table 3 (numbering of Examples 14-16), average of at least two testings, read-out: Cytotoxicity log GI50 (converted)
NCI-H460 = assay: NCI in vitro human tumor cell line assay; format: cell-based; conditions: Non-Small Cell Lung Cancer NCI-H460, Table 3 (numbering of Examples 14-16), average of at least two testings, read-out: Cytotoxicity log GI50 (converted)
NCI-H552 = assay: NCI in vitro human tumor cell line assay; format: cell-based; conditions: Non-Small Cell Lung Cancer NCI-H552, Table 3 (numbering of Examples 14-16), average of at least two testings, read-out: Cytotoxicity log GI50 (converted)
HCT-15 = assay: NCI in vitro human tumor cell line assay; format: cell-based; conditions: Colon Cancer HCT-15, Table 3 (numbering of Examples 14-16), average of at least two testings, read-out: Cytotoxicity log GI50 (converted)
SW-620 = assay: NCI in vitro human tumor cell line assay; format: cell-based; conditions: Colon Cancer SW-620, Table 3 (numbering of Examples 14-16), average of at least two testings, read-out: Cytotoxicity log GI50 (converted)
SF-539 = assay: NCI in vitro human tumor cell line assay; format: cell-based; conditions: CNS Cancer SF-539, Table 3 (numbering of Examples 14-16), average of at least two testings, read-out: Cytotoxicity log GI50 (converted)
SNB-19 = assay: NCI in vitro human tumor cell line assay; format: cell-based; conditions: CNS Cancer SNB-19, Table 3 (numbering of Examples 14-16), average of at least two testings, read-out: Cytotoxicity log GI50 (converted)
IGROV1 = assay: NCI in vitro human tumor cell line assay; format: cell-based; conditions: IGROV-1, Ovarian Cancer IGROV1, Table 3 (numbering of Examples 14-16), average of at least two testings, read-out: Cytotoxicity log GI50 (converted)
MCF 7 = assay: NCI in vitro human tumor cell line assay; format: cell-based; conditions: MCF7, Breast Cancer MCF 7, Table 3 (numbering of Examples 14-16), average of at least two testings, read-out: Cytotoxicity log GI50 (converted)
MCF 7/ADR-RES = assay: NCI in vitro human tumor cell line assay; format: cell-based; conditions: MCF7, Breast Cancer MCF 7/ADR-RES, Table 3 (numbering of Examples 14-16), average of at least two testings, read-out: Cytotoxicity log GI50 (converted)
KB cells [2] = assay: Preliminary KB cell assay (cytotoxicity); format: cell-based; conditions: Homo sapiens, numbering of Examples 14-16, read-out: ED50 (the source's name)
Protocol: Many anthraquinones, including mitoxantrone (1), show antineoplastic activity (Zee-Cheng, R. Y.; Podrebarac, E. G; Menon, C. S.; Cheng, C. C. J. Med. Chem. 1979, 22, 501-505). In addition, the natural product 2-acetyl-4H, 9H-naphtho[2,3-b]furan-4,9-dione (2) isolated from Tabebuia cassinoids (Lam.) DC.
The unsubstituted (3), two mono-acetyl (5, 6), and two di-acetyl (9, 10) derivatives were tested for cytotoxicity in a preliminary KB cell assay.

MOLT-4 [3] = conditions: human
MOLT-4 [4] = assay: NCI in vitro human tumor cell line assay; conditions: MOLT-4, read-out: Cytotoxicity log GI50 (converted)
human tumor cell lines [5] = assay: NCI in vitro screen, mean over all cell lines tested; conditions: Homo sapiens, read-out: Cytotoxicity log GI50, Mean Value (converted)
Excerpt: as §1

MALME-3M = assay: NCI in vitro disease-oriented tumor cells screen; format: cell-based, human; conditions: Homo sapiens; Melanoma MALME-3M; Table 2; average of at least two testings; read-out: Cytotoxicity log GI50 (converted)
Excerpt: as §1

M14 = assay: NCI in vitro disease-oriented tumor cells screen; format: cell-based, human; conditions: Homo sapiens; Melanoma M14; Table 2; average of at least two testings; read-out: Cytotoxicity log GI50 (converted)
Excerpt: as §1

SK-MEL-2 [6] = assay: NCI in vitro disease-oriented tumor cells screen; format: cell-based, human; conditions: Homo sapiens; Melanoma SK-MEL-2; Table 2; average of at least two testings; read-out: Cytotoxicity log GI50 (converted)
Excerpt: as §1

SK-MEL-28 = assay: NCI in vitro disease-oriented tumor cells screen; format: cell-based, human; conditions: Homo sapiens; Melanoma SK-MEL-28; Table 2; average of at least two testings; read-out: Cytotoxicity log GI50 (converted)
Excerpt: as §1

UACC-257 = assay: NCI in vitro disease-oriented tumor cells screen; format: cell-based, human; conditions: Homo sapiens; Melanoma UACC-257; Table 2; average of at least two testings; read-out: Cytotoxicity log GI50 (converted)
Excerpt: as §1

UACC-62 = assay: NCI in vitro disease-oriented tumor cells screen; format: cell-based, human; conditions: Homo sapiens; Melanoma UACC-62; Table 2; average of at least two testings; read-out: Cytotoxicity log GI50 (converted)
Excerpt: as §1

HL-60(TB) = assay: NCI in vitro disease-oriented tumor cells screen; format: cell-based, human; conditions: Homo sapiens; Leukemia HL-60(TB); Table 2; average of at least two testings; read-out: Cytotoxicity log GI50 (converted)
Excerpt: as §1

OVCAR-8 = assay: NCI in vitro disease-oriented tumor cells screen; format: cell-based, human; conditions: Homo sapiens; Ovarian Cancer OVCAR-8; Table 2; average of at least two testings; read-out: Cytotoxicity log GI50 (converted)
Excerpt: as §1

HS 578T = assay: NCI in vitro disease-oriented tumor cells screen; format: cell-based, human; conditions: Homo sapiens; Breast Cancer HS 578T; Table 2; average of at least two testings; read-out: Cytotoxicity log GI50 (converted)
Excerpt: as §1

BT-549 = assay: NCI in vitro disease-oriented tumor cells screen; format: cell-based, human; conditions: Homo sapiens; Breast Cancer BT-549; Table 2; average of at least two testings; read-out: Cytotoxicity log GI50 (converted)
Excerpt: as §1

melanoma cell lines = assay: NCI in vitro screen, melanoma cell lines as a group; format: cell-based, human; conditions: numbering of Examples 1-13
Excerpt: as §1

human tumor cell lines [7] = test system: human tumor cell lines
Excerpt: as §1

SK-MEL-2 [8] = assay: Preliminary cytotoxicity testing of 6 and 16 (Table 1); format: cell-based; conditions: Homo sapiens, Table 1, preliminary testing
KB cells [9] = conditions: KB cells; background, numbering of Examples 1-13; cited from earlier work
[10] = Table 3 (numbering of Examples 14-16)
[11] = Table 2 (numbering of Examples 1-13)

Structure (SMILES) | IC50 (KB) [µg/mL] | IC50 (HCT-8) [µg/mL] | IC50 (A549) [µg/mL] | IC50 (CAKI-1) [µg/mL] | IC50 (MCF-7) [µg/mL] | activity against several leukemia cell lines (in words) [1] | GI50 (LOX IMVI; [10]) [nM] | GI50 (SK-MEL-5; [10]) [nM] | GI50 (NCI-H23; [10]) [nM] | GI50 (OVCAR-3; [10]) [nM] | GI50 (MDA-MB-435; [10]) [nM] | GI50 (MDA-N; [10]) [nM] | GI50 (CCRF-CEM) [nM] | GI50 (NCI-H460) [nM] | GI50 (NCI-H552) [nM] | GI50 (HCT-15) [µM] | GI50 (SW-620) [nM] | GI50 (SF-539) [nM] | melting point [°C] | GI50 (human tumor cell lines [5]) [nM] | also measured
CC(=O)c1csc2c1C(=O)c1ccccc1C2=O [Compound 6, 3-Acetyl-naphtho[2,3-b]thiophene-4,9-dione] | 0.058 (≈ 0.226 µM) | 0.06 (≈ 0.234 µM) | 0.048 (≈ 0.187 µM) | 0.28 (≈ 1.09 µM) | 0.09 (≈ 0.351 µM) | significant activity | 2340 | 170 | 1050 | 3550 | 324 | 933 | 1550 | 1320 | 1740 | 17.4 | 2190 | 2040 | 244 to 245 | 2140 | IC50 (P-399): < 0.1 µg/mL; IC50 (L-1210): 0.32 µg/mL (≈ 1.25 µM); GI50 (SNB-19): 1780 nM; GI50 (IGROV1): 2450 nM; GI50 (MCF 7): 2090 nM; GI50 (MCF 7/ADR-RES): 2880 nM; EC50 (KB cells [2]): 5 µM; Cytotoxicity log GI50 (MOLT-4 [3]): <−8.00 M; GI50 (MOLT-4 [4]): < 10 nM
CC(=O)OC(C)c1cc2c(s1)C(=O)c1c(C(C)OC(C)=O)csc1C2=O (centres unmarked) [Compound 15, 2,7-Bis(1′-acetoxyethyl)-4,8-dihydrobenzo[1,2-b:4,5-b′]dithiophene-4,8-dione] | – | – | – | – | – | – | – | – | – | – | – | – | – | – | – | – | – | – | 180 to 182 | 1200 | GI50 (LOX IMVI; [11]): 1580 nM; GI50 (MALME-3M): 186 nM; GI50 (M14): 513 nM; GI50 (SK-MEL-2 [6]): 1550 nM; GI50 (SK-MEL-28): 1660 nM; GI50 (SK-MEL-5; [11]): 631 nM; GI50 (UACC-257): 631 nM; GI50 (UACC-62): 1100 nM; GI50 (HL-60(TB)): 67.6 nM; GI50 (NCI-H23; [11]): 871 nM; GI50 (OVCAR-3; [11]): 275 nM; GI50 (OVCAR-8): 457 nM; GI50 (HS 578T): 2090 nM; GI50 (MDA-MB-435; [11]): 186 nM; GI50 (MDA-N; [11]): 214 nM; GI50 (BT-549): 2140 nM; potency / selectivity towards melanoma cell lines (in words) (melanoma cell lines): not selective towards melanoma cell lines; overall cytotoxicity / potency (in words) (human tumor cell lines [7]): less active in all cell lines
O=C1c2ccsc2C(=O)c2sccc21 [Compound 16] | 0.05 (≈ 0.227 µM) | 0.032 (≈ 0.145 µM) | 0.032 (≈ 0.145 µM) | 0.11 (≈ 0.499 µM) | < 0.016 | significant activity | – | – | – | – | – | – | – | – | – | – | – | – | – | – | IC50 (SK-MEL-2 [8]): 0.06 µg/mL (≈ 0.272 µM)
CC(=O)c1cc2c(s1)C(=O)c1ccccc1C2=O [Compound 5, 2-Acetyl-naphtho[2,3-b]thiophene-4,9-dione] | – | – | – | – | – | – | 347 | 347 | 447 | 501 | 339 | 1200 | 1000 | 457 | 407 | 0.708 | 457 | 759 | 139 to 140 | 1950 | GI50 (SNB-19): 501 nM; GI50 (IGROV1): 1780 nM; GI50 (MCF 7): 1700 nM; GI50 (MCF 7/ADR-RES): 1910 nM; EC50 (KB cells [2]): ~1.5 µM; ED50 (KB cells [9]): 0.4 µg/mL (≈ 1.56 µM); GI50 (MOLT-4 [4]): 2040 nM
